Assay results reported in PubChem BioAssay AID248 (DTP/NCI, 2004).
Where “and” joins values, the source holds several entries; their conditions need not be identical. Identical values can stand only once. Inconclusive results and toxic doses are left out.

System: L1210 leukemia ip in BDF1 mice, survival T/C
Test: NCI In Vivo Anticancer Drug Screen. Data for tumor model L1210 Leukemia (intraperitoneal) in B6D2F1 (BDF1) mice
Conditions: endpoint: mean survival time, higher = longer survival
How it was run: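 Transplanted-tumor mice were given test agent; controls received vehicle only. Survival readings from the two groups were divided (treated over control).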

[1] = dose: 100.0 mg/kg/injection, schedule: Q01DX001 (ip), vehicle: carboxymethylcellulose (CMC)
[2] = dose: 200.0 mg/kg/injection, schedule: Q01DX001 (ip), vehicle: carboxymethylcellulose (CMC)
[3] = dose: 50.0 mg/kg/injection, schedule: Q01DX001 (ip), vehicle: saline
[4] = dose: 100.0 mg/kg/injection, schedule: Q01DX001 (ip), vehicle: saline
[5] = dose: 200.0 mg/kg/injection, schedule: Q01DX001 (ip), vehicle: saline
[6] = dose: 400.0 mg/kg/injection, schedule: Q01DX001 (ip), vehicle: carboxymethylcellulose (CMC)
[7] = dose: 100.0 mg/kg/injection, schedule: Q01DX001 (ip), vehicle: acetone
[8] = dose: 200.0 mg/kg/injection, schedule: Q01DX001 (ip), vehicle: acetone
[9] = dose: 400.0 mg/kg/injection, schedule: Q01DX001 (ip), vehicle: acetone
[10] = dose: 100.0 mg/kg/injection, schedule: Q01DX009 (ip), vehicle: saline with Tween-80
[11] = dose: 200.0 mg/kg/injection, schedule: Q01DX009 (ip), vehicle: saline with Tween-80
[12] = dose: 400.0 mg/kg/injection, schedule: Q01DX009 (ip), vehicle: saline with Tween-80
[13] = dose: 100.0 mg/kg/injection, schedule: Q04DX003 (ip), vehicle: Klucel (hydroxypropylcellulose) (HPC)
[14] = dose: 200.0 mg/kg/injection, schedule: Q04DX003 (ip), vehicle: Klucel (hydroxypropylcellulose) (HPC)
[15] = dose: 3.12 mg/kg/injection, schedule: Q01DX009 (ip), vehicle: saline
[16] = dose: 400.0 mg/kg/injection, schedule: Q01DX001 (ip), vehicle: saline

With CCCCCCCCCCCCCCCCCC[N+](C)(C)c1nc(Cl)nc(Cl)n1 the T/C (dose: 13.0 mg/kg/injection, schedule: Q01DX015 (ip), vehicle: carboxymethylcellulose (CMC)) was 98 % of control, the T/C (dose: 25.0 mg/kg/injection, schedule: Q01DX015 (ip), vehicle: carboxymethylcellulose (CMC)) was 92 % of control and the T/C (dose: 37.5 mg/kg/injection, schedule: Q04DX003 (ip), vehicle: Klucel (hydroxypropylcellulose) (HPC)) was 103 % of control. For the same compound, the T/C (dose: 50.0 mg/kg/injection, schedule: Q01DX015 (ip), vehicle: carboxymethylcellulose (CMC)) was 93 % of control, the T/C (dose: 75.0 mg/kg/injection, schedule: Q04DX003 (ip), vehicle: Klucel (hydroxypropylcellulose) (HPC)) was 97 % of control and the T/C [1] was 92 % of control. For the same compound, the T/C (dose: 100.0 mg/kg/injection, schedule: Q01DX015 (ip), vehicle: carboxymethylcellulose (CMC)) was 93 % of control and the T/C [2] was 97 % of control.
With CC(=O)OCC1OC(n2c(Br)nc3c(N)ncnc32)C(OC(C)=O)C1OC(C)=O (stereo unspecified) the T/C [3] was 98 % of control, the T/C [1] was 98 % of control and the T/C [4] was 95 % of control. For the same compound, the T/C (dose: 100.0 mg/kg/injection, schedule: Q01DX005 (ip), vehicle: saline) was 89 % of control, the T/C [2] was 95 % of control and the T/C [5] was 104 % of control. The T/C (dose: 200.0 mg/kg/injection, schedule: Q01DX005 (ip), vehicle: saline) was 93 % of control and the T/C [6] was 101 % of control.
In the case of Cc1cccc(C(=O)NC(=S)Nc2ccccc2)c1, the T/C (dose: 5.0 mg/kg/injection, schedule: Q01DX001 (ip), vehicle: saline) is reported as 97 % of control, the T/C (dose: 10.0 mg/kg/injection, schedule: Q01DX001 (ip), vehicle: saline) is reported as 103 % of control and the T/C (dose: 20.0 mg/kg/injection, schedule: Q01DX001 (ip), vehicle: saline) is reported as 97 % of control.
O=C(c1ccccc1)C1CNCCC1(O)c1ccccc1 (stereo unspecified) was tested, and the T/C (dose: 75.0 mg/kg/injection, schedule: Q01DX001 (ip), vehicle: saline) was 104 % of control, the T/C (dose: 75.0 mg/kg/injection, schedule: Q04DX003 (ip), vehicle: acetone) was 101 % of control and the T/C (dose: 150.0 mg/kg/injection, schedule: Q01DX001 (ip), vehicle: saline) was 95 % of control. For the same compound, the T/C (dose: 150.0 mg/kg/injection, schedule: Q04DX003 (ip), vehicle: acetone) was 91 % of control and the T/C (dose: 300.0 mg/kg/injection, schedule: Q01DX001 (ip), vehicle: saline) was 116 % of control.
For Cc1ccc(S(=O)(=O)OCCOCCOc2ccc(C(C)(C)CC(C)(C)C)cc2)cc1, the T/C [7] was 97 % of control, the T/C (dose: 100.0 mg/kg/injection, schedule: Q04DX003 (ip), vehicle: saline) was 98 % of control and the T/C [8] was 89 % of control. The T/C (dose: 200.0 mg/kg/injection, schedule: Q04DX003 (ip), vehicle: saline) was 92 % of control, the T/C [9] was 87 % of control and the T/C (dose: 400.0 mg/kg/injection, schedule: Q04DX003 (ip), vehicle: saline) was 91 % of control.
With O=C(O)c1ccc(Cl)cc1Nc1ccc(F)cc1 the T/C (dose: 100.0 mg/kg/injection, schedule: Q01DX001 (ip), vehicle: Klucel (hydroxypropylcellulose) (HPC)) was 100 % of control, the T/C (dose: 100.0 mg/kg/injection, schedule: Q01DX009 (ip), vehicle: Klucel (hydroxypropylcellulose) (HPC)) was 96 % of control and the T/C (dose: 200.0 mg/kg/injection, schedule: Q01DX001 (ip), vehicle: Klucel (hydroxypropylcellulose) (HPC)) was 100 % of control. For the same compound, the T/C (dose: 400.0 mg/kg/injection, schedule: Q01DX001 (ip), vehicle: Klucel (hydroxypropylcellulose) (HPC)) was 100 % of control.
CC(=O)c1cccc(NC(=O)c2ccc(F)cc2)c1 was tested, and the T/C [10] was 100 % of control, the T/C [11] was 98 % of control and the T/C [12] was 88 % of control.
In the case of O=C(O)c1ccccc1S(=O)(=O)c1ccccc1, the T/C [10] is reported as 109 % of control, the T/C [11] is reported as 101 % of control and the T/C [12] is reported as 103 % of control.
For O=C(O)c1c(F)c(F)c(Oc2c(F)c(F)c(F)c(F)c2F)c(F)c1F, the T/C [13] was 95 % of control and the T/C [14] was 93 % of control.
With COC(=O)c1ccc(N(C)CC2=Nc3c(nc(N)nc3SCc3ccccc3)NC2)cc1 the T/C (dose: 100.0 mg/kg/injection, schedule: Q01DX001 (ip), vehicle: saline with Tween-80) was 97 % of control, the T/C (dose: 200.0 mg/kg/injection, schedule: Q01DX001 (ip), vehicle: saline with Tween-80) was 108 % of control and the T/C (dose: 400.0 mg/kg/injection, schedule: Q01DX001 (ip), vehicle: saline with Tween-80) was 101 % of control.
With O=[N+]([O-])c1ccc2c(c1)-c1[nH]c3ccccc3c1CS2 the T/C [7] was 100 % of control, the T/C [8] was 92 % of control and the T/C [9] was 92 % of control.
In the case of CCCCCCCN=C(N)c1ccc(C(=O)OC2CCCCC2)cc1, the T/C [4] is reported as 96 % of control.
With CC(C)(C)C1CCC(NN)CC1 (stereo unspecified) the T/C (dose: 0.78 mg/kg/injection, schedule: Q01DX009 (ip), vehicle: saline) was 101 % of control, the T/C (dose: 1.56 mg/kg/injection, schedule: Q01DX009 (ip), vehicle: saline) was 100 % of control and the T/C [15] was 101 % of control. For the same compound, the T/C (dose: 6.25 mg/kg/injection, schedule: Q01DX009 (ip), vehicle: saline) was 95 % of control, the T/C (dose: 12.5 mg/kg/injection, schedule: Q04DX003 (ip), vehicle: saline) was 98 % of control and the T/C (dose: 25.0 mg/kg/injection, schedule: Q04DX003 (ip), vehicle: saline) was 98 % of control. The T/C [3] was 92 % of control.
For Nc1nc(N)c2nc(CNc3ccc(C(=O)NC(CC(=O)O)C(=O)O)cc3)cnc2n1 (stereo unspecified), the T/C (dose: 1.56 mg/kg/injection, schedule: Q01DX Z (ip), vehicle: saline) was 114 % of control, the T/C [15] was 110 % of control and the T/C (dose: 3.13 mg/kg/injection, schedule: Q01DX Z (ip), vehicle: saline) was 108 % of control. For the same compound, the T/C (dose: 25.0 mg/kg/injection, schedule: Q01DX009 (ip), vehicle: saline) was 151 % of control, the T/C (dose: 25.0 mg/kg/injection, schedule: Q01DX Z (ip), vehicle: saline) was 172 % of control and the T/C (dose: 50.0 mg/kg/injection, schedule: Q01DX009 (ip), vehicle: saline) was 166 % of control. For the same compound, the T/C (dose: 50.0 mg/kg/injection, schedule: Q01DX Z (ip), vehicle: saline) was 118 % of control, the T/C (dose: 100.0 mg/kg/injection, schedule: Q01DX009 (ip), vehicle: saline) was 95 % of control and the T/C (dose: 100.0 mg/kg/injection, schedule: Q01DX Z (ip), vehicle: saline) was 114 % of control and 88 % of control. The T/C (dose: 200.0 mg/kg/injection, schedule: Q01DX Z (ip), vehicle: saline) was 95 % of control.
O=C(O)Cc1ccc(Br)cc1 was tested, and the T/C (dose: 100.0 mg/kg/injection, schedule: Q04DX003 (ip), vehicle: saline with Tween-80) was 93 % of control, the T/C (dose: 200.0 mg/kg/injection, schedule: Q04DX003 (ip), vehicle: saline with Tween-80) was 96 % of control and the T/C (dose: 400.0 mg/kg/injection, schedule: Q04DX003 (ip), vehicle: saline with Tween-80) was 102 % of control.
O=C(O)Cn1cc(Cl)cc(Cl)c1=O was tested, and the T/C (dose: 100.0 mg/kg/injection, schedule: Q04DX002 (ip), vehicle: Klucel (hydroxypropylcellulose) (HPC)) was 107 % of control, the T/C (dose: 200.0 mg/kg/injection, schedule: Q04DX002 (ip), vehicle: Klucel (hydroxypropylcellulose) (HPC)) was 107 % of control and the T/C (dose: 400.0 mg/kg/injection, schedule: Q04DX002 (ip), vehicle: Klucel (hydroxypropylcellulose) (HPC)) was 96 % of control.
N#CCC(=O)N1CCCCC1 was tested, and the T/C (dose: 50.0 mg/kg/injection, schedule: Q01DX001 (ip), vehicle: carboxymethylcellulose (CMC)) was 93 % of control, the T/C [1] was 93 % of control and the T/C [2] was 114 % of control. The T/C [6] was 95 % of control.
For CCOC(=O)CCc1c(C(=O)OCC)[nH]c(C)c1CC(=O)OC, the T/C [13] was 98 % of control, the T/C [14] was 101 % of control and the T/C (dose: 400.0 mg/kg/injection, schedule: Q04DX003 (ip), vehicle: Klucel (hydroxypropylcellulose) (HPC)) was 101 % of control.
CCOC(=O)Nc1cccc(O)c1 was tested, and the T/C [10] was 91 % of control, the T/C [11] was 103 % of control and the T/C [12] was 92 % of control.
In the case of Cc1cc(=O)cc(C)[nH]1, the T/C [4] is reported as 90 % of control, the T/C [5] is reported as 94 % of control and the T/C [16] is reported as 92 % of control.
In the case of COC(=O)c1cc(NC(=O)c2ccccc2F)cc(C(=O)OC)c1, the T/C (dose: 100.0 mg/kg/injection, schedule: Q01DX009 (ip), vehicle: carboxymethylcellulose (CMC)) is reported as 88 % of control, the T/C (dose: 200.0 mg/kg/injection, schedule: Q01DX009 (ip), vehicle: carboxymethylcellulose (CMC)) is reported as 90 % of control and the T/C (dose: 400.0 mg/kg/injection, schedule: Q01DX009 (ip), vehicle: carboxymethylcellulose (CMC)) is reported as 91 % of control.
For O=[N+]([O-])c1cccc(OCCOc2cccc([N+](=O)[O-])c2)c1, the T/C [4] was 97 % of control, the T/C [5] was 96 % of control and the T/C [16] was 103 % of control.
